Experimental data published in patent US20160243062A1, “SYNTHESIS AND GROWTH REGULATORY ACTIVITY OF A PROTOTYPE MEMBER OF A NEW FAMILY OF AMINOTHIOL RADIOPROTECTORS” (WISCONSIN ALUMNI RESEARCH FOUNDATION, priority 2012, published 2016).

Tested on: radiation dermatitis in rat skin
Assay: Rat radiation dermatitis assay, topical application before irradiation
Format: in vivo
Description: To determine if PrC-210 could function as a topical radioprotector that could prevent radiation dermatitis when applied prior to a cancer patient's daily radiotherapy, a rat assay that realistically mimics human radiation dermatitis was created. This assay quantifies the severity of radiation dermatitis in rat skin 13 days after a single radiation dose of 17.33 Gy.
In this study, PrC-210 was applied to rat skin in an ethanol/water delivery vehicle four times in the 2 h before irradiation, and control rats received only topical vehicle before irradiation (FIG. 2). Additional drug/irradiation groups of three rats each received either the alkyl-thiol moiety or the alkyldiamine moiety from PrC-210 in the same delivery vehicle. Following the 17.33 Gy irradiation of a […] patch of dorsal skin on the rats' backs, rats were scored 13 days later.
Molecules were applied to skin in an alcohol/water delivery vehicle prior to receiving a 17.33 Gy radiation dose to the 1.5 cm×3.0 cm skin site. Radiation dermatitis severity (i.e., % of the site covered by scab material) was scored 13 days following irradiation.

In the case of `CNCC(CS)CNC` [PrC-210, 3-(methyl-amino)-2-((methylamino)methyl)propane-l-thiol], the “topical radioprotective potency and efficacy compared with thiolated polyamines and other PrC-200 series aminothiols” value (radiodermatitis test groups) is reported as “most potent and most effective topical aminothiol to date” and the “prevention of radiation dermatitis (% of the site covered by scab material)” value (topical in ethanol/water vehicle four times in the 2 h before single 17.33 Gy dose, scored 13 days later) is reported as “completely prevent radiation dermatitis”.
